This note sets out measurements from PubChem BioAssay AID256 (DTP/NCI, 2004).

The assay concerns CD2F1 mice, L1210 leukemia ip, survival T/C. The assay can be described thus: NCI In Vivo Anticancer Drug Screen. Data for tumor model L1210 Leukemia (intraperitoneal) in CD2F1 (CDF1) mice. The conditions noted are these: higher = longer survival. In short, it runs like this:
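Activity against a transplanted murine tumor was judged by comparing the compound group with a vehicle group. The outcome in the treated animals was divided by that in the controls.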

[1] abbreviates: endpoint: mean survival time, dose: 100.0 mg/kg/injection, schedule: Q01DX009 (ip), vehicle: saline with Tween-80.
[2] abbreviates: endpoint: mean survival time, dose: 100.0 mg/kg/injection, schedule: Q04DX003 (ip), vehicle: saline.
The mark [3] stands for this setting: endpoint: mean survival time, dose: 200.0 mg/kg/injection, schedule: Q01DX009 (ip), vehicle: saline with Tween-80.
Where [4] appears, read: endpoint: mean survival time, dose: 200.0 mg/kg/injection, schedule: Q04DX003 (ip), vehicle: saline.
The mark [5] stands for this setting: endpoint: mean survival time, dose: 25.0 mg/kg/injection, schedule: Q01DX001 (ip), vehicle: saline with Tween-80.
[6] abbreviates: endpoint: mean survival time, dose: 50.0 mg/kg/injection, schedule: Q01DX001 (ip), vehicle: saline with Tween-80.
[7] abbreviates: endpoint: mean survival time, dose: 100.0 mg/kg/injection, schedule: Q01DX001 (ip), vehicle: other.
Where [8] appears, read: endpoint: mean survival time, dose: 400.0 mg/kg/injection, schedule: Q01DX009 (ip), vehicle: saline with Tween-80.
The mark [9] stands for this setting: endpoint: mean survival time, dose: 100.0 mg/kg/injection, schedule: Q04DX003 (ip), vehicle: Klucel (hydroxypropylcellulose) (HPC).
Where [10] appears, read: endpoint: mean survival time, dose: 200.0 mg/kg/injection, schedule: Q04DX003 (ip), vehicle: Klucel (hydroxypropylcellulose) (HPC).
Where [11] appears, read: endpoint: mean survival time, dose: 12.5 mg/kg/injection, schedule: Q01DX001 (ip), vehicle: saline with Tween-80.
Where [12] appears, read: endpoint: mean survival time, dose: 100.0 mg/kg/injection, schedule: Q04DX002 (ip), vehicle: saline with Tween-80.
The mark [13] stands for this setting: endpoint: mean survival time, dose: 200.0 mg/kg/injection, schedule: Q04DX002 (ip), vehicle: saline with Tween-80.
[14] abbreviates: endpoint: mean survival time, dose: 400.0 mg/kg/injection, schedule: Q04DX002 (ip), vehicle: saline with Tween-80.

Where “and” joins values, the source holds several entries; their conditions need not be identical. Equal entries are not always repeated. Inconclusive results and toxic doses are left out.

`CC(C)NC(=O)C1C=C2c3cccc4c3C(CN4)CC2N(C)C1` (configuration not stated): the T/C (endpoint: mean survival time, dose: 50.0 mg/kg/injection, schedule: Q01DX009 (ip), vehicle: saline with Tween-80) was 93 % of control; the T/C (endpoint: mean survival time, dose: 50.0 mg/kg/injection, schedule: Q04DX003 (ip), vehicle: saline) was 94 % of control; the T/C under setting [1] is 100 % of control; the T/C under setting [2] was 88 % of control; the T/C under setting [3] was 97 % of control; the T/C under setting [4] is 94 % of control.

Regarding `CC(C)S(=O)(=O)/C=C(\I)c1ccccc1`, the T/C was 100 % of control under setting [2] and 102 % of control under setting [4].

On to `C=C1CC(Cc2ccccc2)OC1=O` (configuration not stated), for which the T/C is 96 % of control under setting [5]; 101 % of control under setting [6]; 101 % of control (endpoint: mean survival time, dose: 100.0 mg/kg/injection, schedule: Q01DX001 (ip), vehicle: saline with Tween-80).

On to `Nc1ccc(OCCCc2ccccc2)c([N+](=O)[O-])c1`, for which the T/C was 92 % of control and 100 % of control under setting [7]; 96 % of control and 102 % of control under setting [1]; 98 % of control (endpoint: mean survival time, dose: 100.0 mg/kg/injection, schedule: Q04DX002 (ip), vehicle: other); 98 % of control (endpoint: mean survival time, dose: 100.0 mg/kg/injection, schedule: Q04DX003 (ip), vehicle: other); 93 % of control and 98 % of control (endpoint: mean survival time, dose: 200.0 mg/kg/injection, schedule: Q01DX001 (ip), vehicle: other); 96 % of control and 106 % of control under setting [3]. Further, the T/C was 100 % of control (endpoint: mean survival time, dose: 200.0 mg/kg/injection, schedule: Q04DX002 (ip), vehicle: other); 100 % of control (endpoint: mean survival time, dose: 200.0 mg/kg/injection, schedule: Q04DX003 (ip), vehicle: other); 122 % of control and 93 % of control under setting [8]; 102 % of control (endpoint: mean survival time, dose: 400.0 mg/kg/injection, schedule: Q04DX002 (ip), vehicle: other).

As for `CS(=O)(=O)c1nnc(-c2ccccc2)s1`, the T/C is 90 % of control under setting [9] and 90 % of control under setting [10].

In the case of `CN(C)[C@@H]1C(=O)C(C(=O)NCNC(Cc2ccc(N(CCCl)CCCl)cc2)C(=O)O)=C(O)[C@@]2(O)C(=O)C3=C(O)c4c(O)cccc4[C@@](C)(O)[C@H]3C[C@@H]12` (some centres not stated), the T/C under setting [7] was 164 % of control.

Consider `OC(COc1ccc(Cl)cc1Cl)COc1ccc(Cl)cc1Cl`, for which the T/C is, setting by setting: (endpoint: mean survival time, dose: 100.0 mg/kg/injection, schedule: Q04DX003 (ip), vehicle: saline with Tween-80) 95 % of control; (endpoint: mean survival time, dose: 200.0 mg/kg/injection, schedule: Q04DX003 (ip), vehicle: saline with Tween-80) 92 % of control; (endpoint: mean survival time, dose: 400.0 mg/kg/injection, schedule: Q04DX003 (ip), vehicle: saline with Tween-80) 93 % of control.

As to `N#C/C(=C\c1cc(Cl)ccc1O)C1CCC([N+](=O)[O-])CC1` (configuration not stated), the T/C was 86 % of control under setting [1], 93 % of control under setting [3] and 91 % of control under setting [8].

For `O=C1C=C(O)c2ccccc2C1=O.[Ag]`, the T/C reads like this: under setting [11], 97 % of control; under setting [5], 93 % of control.

For the molecule `NC1CCCCC(O)CCCC1` (configuration not stated), the T/C reads like this: under setting [11], 95 % of control; under setting [5], 92 % of control; under setting [6], 97 % of control.

Take `CN1CCN(CC(=O)N2c3ccccc3Sc3cc4ccccc4cc32)CC1`: the T/C is 101 % of control (endpoint: mean survival time, dose: 75.0 mg/kg/injection, schedule: Q01DX001 (ip), vehicle: saline); 108 % of control (endpoint: mean survival time, dose: 150.0 mg/kg/injection, schedule: Q01DX001 (ip), vehicle: saline); 96 % of control (endpoint: mean survival time, dose: 300.0 mg/kg/injection, schedule: Q01DX001 (ip), vehicle: saline).

Turning to `O=C(O)CC1CCCCCCCCCCC1=O` (configuration not stated), the T/C is, setting by setting: under setting [12], 98 % of control; under setting [13], 91 % of control; under setting [14], 98 % of control.

On to `CC(=O)Nc1ccc(/C=N/NC(=O)CNC(=O)Nc2ccc(Cl)c(Cl)c2)cc1`, for which the T/C under setting [1] was 95 % of control, the T/C under setting [3] was 100 % of control and the T/C under setting [8] was 109 % of control.

With `O=[N+]([O-])c1ccc(O/N=C(\CN2CCCC2)c2ccc(Cl)cc2)c([N+](=O)[O-])c1`, the T/C runs as follows: (endpoint: mean survival time, dose: 100.0 mg/kg/injection, schedule: Q01DX001 (ip), vehicle: Klucel (hydroxypropylcellulose) (HPC)) 90 % of control; (endpoint: mean survival time, dose: 200.0 mg/kg/injection, schedule: Q01DX001 (ip), vehicle: Klucel (hydroxypropylcellulose) (HPC)) 87 % of control; (endpoint: mean survival time, dose: 400.0 mg/kg/injection, schedule: Q01DX001 (ip), vehicle: Klucel (hydroxypropylcellulose) (HPC)) 98 % of control.

In the case of `Cc1cc(O)c2c(c1)C(=O)c1cccc(O)c1C2=O`, the T/C by setting is: (endpoint: mean survival time, dose: 6.25 mg/kg/injection, schedule: Q01DX001 (ip), vehicle: saline) 115 % of control; (endpoint: mean survival time, dose: 12.5 mg/kg/injection, schedule: Q01DX001 (ip), vehicle: saline) 112 % of control; (endpoint: mean survival time, dose: 25.0 mg/kg/injection, schedule: Q01DX001 (ip), vehicle: saline) 102 % of control.

For `O=C(Nc1ccccc1)OCCc1c2ccccc2nc2ccccc12`, the T/C is, setting by setting: under setting [12], 94 % of control; under setting [13], 94 % of control; under setting [14], 90 % of control and 97 % of control.

Regarding `NC(=O)NC(S(=O)(=O)O)S(=O)(=O)O`, the T/C was 96 % of control (endpoint: mean survival time, dose: 100.0 mg/kg/injection, schedule: Q01DX001 (ip), vehicle: saline); 101 % of control (endpoint: mean survival time, dose: 200.0 mg/kg/injection, schedule: Q01DX001 (ip), vehicle: saline); 101 % of control (endpoint: mean survival time, dose: 400.0 mg/kg/injection, schedule: Q01DX001 (ip), vehicle: saline).

`CC(C)=CC(=O)CC(O)(C(F)(F)F)C(F)(F)Cl` (configuration not stated): the T/C was 98 % of control under setting [9] and 93 % of control under setting [10].

For `O=C(O)c1cccc(F)c1Br`, the T/C by setting is: under setting [12], 95 % of control; under setting [13], 95 % of control; under setting [14], 87 % of control.

For the molecule `C[S+](C)CC(=O)c1ccccc1`, the T/C (endpoint: mean survival time, dose: 50.0 mg/kg/injection, schedule: Q01DX009 (ip), vehicle: saline) is 97 % of control; the T/C (endpoint: mean survival time, dose: 100.0 mg/kg/injection, schedule: Q01DX009 (ip), vehicle: saline) was 106 % of control; the T/C (endpoint: mean survival time, dose: 200.0 mg/kg/injection, schedule: Q01DX009 (ip), vehicle: saline) is 107 % of control.

As for `Cc1ncc(CO)n1C`, the T/C is 94 % of control (endpoint: mean survival time, dose: 50.0 mg/kg/injection, schedule: Q01DX009 (ip), vehicle: Klucel (hydroxypropylcellulose) (HPC)); 105 % of control (endpoint: mean survival time, dose: 100.0 mg/kg/injection, schedule: Q01DX009 (ip), vehicle: Klucel (hydroxypropylcellulose) (HPC)); 105 % of control (endpoint: mean survival time, dose: 200.0 mg/kg/injection, schedule: Q01DX009 (ip), vehicle: Klucel (hydroxypropylcellulose) (HPC)).

As to `COC(=O)c1ncn(C2OC(CO)C(O)C2O)n1` (configuration not stated), the T/C is 100 % of control (endpoint: median survival time, dose: 8.75 mg/kg/injection, schedule: Q01DX005 (ip), vehicle: water); 96 % of control (endpoint: median survival time, dose: 17.5 mg/kg/injection, schedule: Q01DX005 (ip), vehicle: water); 97 % of control (endpoint: median survival time, dose: 35.0 mg/kg/injection, schedule: Q01DX005 (ip), vehicle: water); 97 % of control (endpoint: median survival time, dose: 70.0 mg/kg/injection, schedule: Q01DX005 (ip), vehicle: water); 100 % of control (endpoint: median survival time, dose: 140.0 mg/kg/injection, schedule: Q01DX005 (ip), vehicle: water).

As to `CCN(CCO)c1ccc(N)cc1C`, the T/C was 100 % of control (endpoint: mean survival time, dose: 1.56 mg/kg/injection, schedule: Q01DX009 (ip), vehicle: saline); 101 % of control (endpoint: mean survival time, dose: 1.56 mg/kg/injection, schedule: Q04DX003 (ip), vehicle: saline); 100 % of control (endpoint: mean survival time, dose: 3.13 mg/kg/injection, schedule: Q01DX009 (ip), vehicle: saline); 104 % of control (endpoint: mean survival time, dose: 3.13 mg/kg/injection, schedule: Q04DX003 (ip), vehicle: saline); 101 % of control (endpoint: mean survival time, dose: 6.25 mg/kg/injection, schedule: Q01DX009 (ip), vehicle: saline); 97 % of control (endpoint: mean survival time, dose: 6.25 mg/kg/injection, schedule: Q04DX003 (ip), vehicle: saline).

For `Nc1nc(=O)n(C2OC(CO)C(O)C2O)c2sccc12` (configuration not stated), the T/C reads like this: (endpoint: mean survival time, dose: 25.0 mg/kg/injection, schedule: Q01DX005 (ip), vehicle: water) 94 % of control; (endpoint: mean survival time, dose: 50.0 mg/kg/injection, schedule: Q01DX005 (ip), vehicle: water) 94 % of control; (endpoint: mean survival time, dose: 100.0 mg/kg/injection, schedule: Q01DX005 (ip), vehicle: water) 89 % of control; (endpoint: mean survival time, dose: 200.0 mg/kg/injection, schedule: Q01DX005 (ip), vehicle: water) 89 % of control.
